Measured values as given in PubChem BioAssay AID2060485 (Molecular Pharmacology Branch, DTP, NCI, 2025).

System: A375 multi-cell spheroids with HUVEC/MSC, viability
Test: Anticancer human tumor A375 cell line growth inhibition [GQUAD];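 note: spheroids exposed to compounds for seven days before readout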
Conditions: for IC50: curve of first compound; for viability, T/C: stronger effect = lower value
Method in brief: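 Multi-cell-type spheroids of tumor cells with HUVEC and mesenchymal stem cells, treated with drug combinations. Concentrations descend in half-log steps from near clinical Cmax, or from 10 microM where Cmax is unknown; viability read-out.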

Q: Which IC50 (second compound 0.0316 µM) does the source give for `CC1COCCN1c1cc(-c2ccnn2C)c2ccnc(-c3ccn[nH]3)c2n1` (configuration not stated) + CN(C)c1ccc(Nc2c3ccc(NC(=O)CCN4CCCC4)cc3nc3cc(NC(=O)CCN4CCCC4)ccc23)cc1 here?
A: 308 nM

Q: What about the IC50 (second compound 0.1 µM) of the same compound?
A: 303 nM

Q: What about the IC50 (second compound 0.316 µM) of the same compound?
A: 344 nM

Q: And the IC50 (second compound 1 µM)?
A: 339 nM

Q: And the IC50 (second compound 3.16 µM)?
A: 319 nM

Q: What about the IC50 (second compound 10 µM) of the same compound?
A: 283 nM

Q: And the viability, T/C (second compound 0.0316 µM, first compound 0.0316 µM)?
A: 105%

Q: And the viability, T/C (second compound 0.0316 µM, first compound 0.1 µM)?
A: 78.3%

Q: What about the viability, T/C (second compound 0.0316 µM, first compound 0.316 µM) of the same compound?
A: 50.8%

Q: And the viability, T/C (second compound 0.0316 µM, first compound 1 µM)?
A: 25.8%

Q: What about the viability, T/C (second compound 0.0316 µM, first compound 3.16 µM) of the same compound?
A: 10%

Q: What about the viability, T/C (second compound 0.0316 µM, first compound 10 µM) of the same compound?
A: 9.41%

Q: What about the viability, T/C (second compound 0.1 µM, first compound 0.0316 µM) of the same compound?
A: 114%

Q: What about the viability, T/C (second compound 0.1 µM, first compound 0.1 µM) of the same compound?
A: 82%

Q: And the viability, T/C (second compound 0.1 µM, first compound 0.316 µM)?
A: 48.8%

Q: And the viability, T/C (second compound 0.1 µM, first compound 1 µM)?
A: 26.6%

Q: And the viability, T/C (second compound 0.1 µM, first compound 3.16 µM)?
A: 10.1%

Q: And the viability, T/C (second compound 0.1 µM, first compound 10 µM)?
A: 9.57%

Q: What about the viability, T/C (second compound 0.316 µM, first compound 0.0316 µM) of the same compound?
A: 111%

Q: And the viability, T/C (second compound 0.316 µM, first compound 0.1 µM)?
A: 82.6%

Q: What about the viability, T/C (second compound 0.316 µM, first compound 0.316 µM) of the same compound?
A: 53.6%

Q: What about the viability, T/C (second compound 0.316 µM, first compound 1 µM) of the same compound?
A: 26.7%

Q: What about the viability, T/C (second compound 0.316 µM, first compound 3.16 µM) of the same compound?
A: 11.1%

Q: What about the viability, T/C (second compound 0.316 µM, first compound 10 µM) of the same compound?
A: 9.6%

Q: What about the viability, T/C (second compound 1 µM, first compound 0.0316 µM) of the same compound?
A: 108%

Q: And the viability, T/C (second compound 1 µM, first compound 0.1 µM)?
A: 82.9%

Q: What about the viability, T/C (second compound 1 µM, first compound 0.316 µM) of the same compound?
A: 51.4%

Q: And the viability, T/C (second compound 1 µM, first compound 1 µM)?
A: 27.5%

Q: And the viability, T/C (second compound 1 µM, first compound 3.16 µM)?
A: 11.2%

Q: And the viability, T/C (second compound 1 µM, first compound 10 µM)?
A: 8.68%

Q: What about the viability, T/C (second compound 3.16 µM, first compound 0.0316 µM) of the same compound?
A: 110%

Q: What about the viability, T/C (second compound 3.16 µM, first compound 0.1 µM) of the same compound?
A: 83.9%

Q: What about the viability, T/C (second compound 3.16 µM, first compound 0.316 µM) of the same compound?
A: 48.9%

Q: And the viability, T/C (second compound 3.16 µM, first compound 1 µM)?
A: 28.2%

Q: What about the viability, T/C (second compound 3.16 µM, first compound 3.16 µM) of the same compound?
A: 10.8%

Q: And the viability, T/C (second compound 3.16 µM, first compound 10 µM)?
A: 10.2%

Q: What about the viability, T/C (second compound 10 µM, first compound 0.0316 µM) of the same compound?
A: 97.7%

Q: And the viability, T/C (second compound 10 µM, first compound 0.1 µM)?
A: 74.2%

Q: What about the viability, T/C (second compound 10 µM, first compound 0.316 µM) of the same compound?
A: 47.3%

Q: What about the viability, T/C (second compound 10 µM, first compound 1 µM) of the same compound?
A: 27.6%

Q: And the viability, T/C (second compound 10 µM, first compound 3.16 µM)?
A: 11.1%

Q: What about the viability, T/C (second compound 10 µM, first compound 10 µM) of the same compound?
A: 9.62%
